# Data published in patent US5185360A, “Dihydroindenoindole compounds and methods for using the same” (University of Bath, priority 1989, dated 1993).
# How the values were obtained:
# [1] = test system: lipid peroxidation of soy bean phospholipids; assay: Ascorbate/Fe^2+-dependent lipid peroxidation; type: biochemical; conditions: inhibition of ascorbate/Fe^2+-dependent lipid peroxidation by 50%; pH 7.4, room temperature, 30 min
# From the text: (§1) The most important feature of the compounds of the invention is their efficacy as free-radical scavengers or antioxidants. An assay system measuring the concentration of the compounds of formulas (IA) and (IB) required to inhibit lipid peroxidation by 50% (IC50) was used. Other assays described below are the red blood cell fragility test used for measuring membrane stabilisation by indenoindoles. (Table 2), and protection by indenoindoles against cytotoxicity of N-methyl-N'-nitro-N-nitrosoguanidine (MNNG) in rat hepatocytes (Table 3). MNNG is a highly cytotoxic agent, the mechanism of action of which may involve a radical-mediated membrane destabilization.
# For the ferrous/ascorbate lipid peroxidation system, 6.25 ml of 0.1 M potassium phosphate buffer (KPi), pH 7.4, was added to 12.5 mg dried soy bean phospholipids. After flushing with argon for 2 min, the suspension was sealed with five layers of Parafilm and sonicated until the suspension was translucent. The final reaction mixture was composed of 200 μg/ml phospholipid, 10 μM FeNH4 (SO4)2 or Fe(NH4)2 (SO4)2, and 100 μM ascorbic acid in 0.1 M KPi (pH 7.4), and the antioxidant to be tested in acetone or DMSO. The volume of vehicle never exceeded 1% of the total volume. The reaction was initiated by the addition of ascorbic acid plus iron. The reaction was continued at room temperature in a shaking water bath for 30 min and then stopped by the addition of […] of 0.5 M butylated hydroxytoluene in DMSO. The above procedure and the subsequent determination of 2-thibarbituric acid-reactive material is described in: Shertzer, H. G. et al, Biochem. Pharmacol. 37, 333 (1988).
# [2] = test system: rat hepatocytes; assay: Protection against cytotoxic effects of MNNG in hepatocytes; type: cell-based, rat (male Sprague-Dawley); conditions: Hepatocyte, concentration of compound required to extend by 1 hour the time needed for MNNG to kill 50% of the viable cells, 0.5 mM MNNG
# From the text: as §1
# The protective effects of indenoindoles on MNNG-induced cytotoxicity was assayed with rat hepatocytes. Hepatocytes were prepared from male Sprague-Dawley rats by collagenase treatment as originally described by Zahlten and Stratman (Zahlten, R. N. and Stratman, F. W., Arch. Biochem. Biophys. 163, 600 (1988)), as modified by Reitman et al. (Reitman, F. A. Shertzer, H. G. and Berger, M. L., Biochem. Pharmacol. 37, 3183 (1988)). In order to improve viability, cells were centrifuged through 0.508g/ml Percoll (Pharmacia AB, Uppsala, Sweden) in 137 mM NaCl, 8.1 mM Na2 HPO4 and 1.5 mM KH2 PO4 (pH 7.4). Putative protecting agents were added to the cells as solutions in DMSO, with the final concentration of DMSO never exceeding 5 μl/ml of cell suspension. MNNG was added to a concentration of 0.5 mM as a solution in ethanol, giving a final concentration of ethanol of 1%; ethanol alone was by itself without effect. Viability was determined as the percentage of cells that excluded 0.2% trypan blue. Values are the concentration of compound required to extend by 1 hour, the time needed for MNNG to kill 50% of the viable cells.
# [3] = test system: red blood cells; assay: Membrane stabilization in red blood cells (red blood cell fragility test); type: cell-based, rat; conditions: linear regression slope: percentage protection against osmolysis per μM protecting agent; pH 7.4
# From the text: as §1
# The membrane stabilization effect of indenoindoles was assayed by the red blood cell fragility test. Rats were anesthetized with 65 mg phenobarbital per kg body weight by i.p. injection. Blood samples were removed into a heparinized syringe from the left ventricle and diluted 20-fold with buffer containing 140 mM NaCl, 10 mM sodium citrate and 5 mM glucose (pH 7.4) at 0° C. Diluted blood was kept on ice. A 0.75 ml aliquot of blood was added to a 4 ml cuvette containing 10 μl of the antioxidant dissolved in DMSO vehicle. After I min of gentle swirling, 0.75 ml of 0.9 NaCl or H2 O were added to the cuvette by forceful pipetting, and the absorbance at 656 nm was recorded with a Beckman DU-70 spectrophotometer. When H2 O was added in the absence of a stabilizing agent, absorbance decreased within 15 sec to 0.8. Addition of NaCl instead of H2 O gave a time-independent absorbance of 2.2. In the presence of increasing concentrations of stabilizing chemicals, the absorbance decrease observed after the addition of water was diminished. The % protection from osmolysis was obtained from the equation [[(2.2-0.8)- A]/(2.2-0.8)]×100%, where A=2.2 minus the absorbance decrease when water is added in the presence of a known concentration of chemical. The % protection is then plotted against several concentrations of the chemical being treated. The red blood cell fragility protective index value (RBC-PIV) is the linear regression slope of this plot, expressed as the percentage protection against osmolysis per μM protecting agent.
# [4] = test system: lipid peroxidation; conditions: Fd Chem. Toxicol. 26, 517 (1988); cited from earlier work
# [5] = test system: mouse liver microsomes; conditions: NADPH-fortified mouse liver microsomes, initiated with CCl4; FASEB J. 2, A 407 (1988); cited from earlier work
SMILES,pIC50 [1],RBC-PIV (red blood cell fragility protective index value) [3],also measured
"CCN(CC)c1ccc2c(c1)Cc1c-2[nH]c2ccccc12 [2-Diethylamino-DHII, 5,10-Dihydro-2-(N,N-diethylamino)indeno[1,2-b]indole]",7.4,–,–
"Cn1c2c(c3ccccc31)Cc1ccccc1-2 [5-Methyl-DHII, 5,10-Dihydro-5-methylindeno[1,2-b]indole]",5.1,0.74 %/μM,IC50 [2]: 6 µM
"Cc1cc(C)c2[nH]c3c(c2c1)Cc1ccccc1-3 [6,8-Dimethyl-DHII, 5,10-Dihydro-6,8-dimethylindeno[1,2-b]indole]",6.1,–,–
"Clc1cccc2c3c([nH]c12)-c1ccccc1C3 [6-Chloro-DHII, 5,10-Dihydro-6-chloroindeno[1,2-b]indole]",5.2,–,–
"CC(C)c1ccc2[nH]c3c(c2c1)Cc1ccccc1-3 [8-Isopropyl-DHII, 5,10-Dihydro-8-iso-propylindeno[1,2-b]indole]",5.6,–,–
"COc1ccc2[nH]c3c(c2c1)Cc1ccccc1-3 [8-Methoxy-DHII, 5,10-Dihydro-8-methoxyindeno[1,2-b]indole]",6.2,–,–
"COc1ccc2[nH]c3c(c2c1)-c1ccccc1C3 [9-Methoxy-iso-DHII, 5,6-Dihydro-9-methoxyindeno[2,1-b]indole]",6.4,–,–
"Cc1c(C)c2c(c(C)c1O)CCC(C)(CCCC(C)CCCC(C)CCCC(C)C)O2 (stereo not drawn) [α-Tocopherol (Vitamin E), α-Tocopherol, reference compound]",5.0,0.10 %/μM,–

# Second part, led by results:
pIC50 [1],SMILES,RBC-PIV (red blood cell fragility protective index value) [3],also measured
7.9,"CCNc1ccc2c(c1)Cc1c-2[nH]c2ccccc12 [2-Ethylamino-DHII, 5,10-Dihydro-2-(N-ethylamino)indeno[1,2-b] indole]",–,–
5.6,"Fc1ccc2[nH]c3c(c2c1)Cc1ccccc1-3 [8-Fluoro-DHII, 5,10-Dihydro-8-fluoroindeno[1,2-b]indole]",–,–
5.7,"Cc1ccc2[nH]c3c(c2c1)Cc1ccccc1-3 [8-Methyl-DHII, 5,10-Dihydro-8-methylindeno[1,2-b]indole]",–,–
6.1,"CC1(C)c2ccccc2-c2[nH]c3ccccc3c21 [10,10-Dimethyl-DHII, 5,10-Dihydro-10,10-dimethylindeno[1,2-b]indole]",0.48 %/μM,–
5.7,"CC1c2ccccc2-c2[nH]c3ccccc3c21 (centres unmarked) [10-Methyl-DHII, 5,10-Dihydro-10-methylindeno[1,2-b]indole]",–,–
5.8,"c1ccc2c(c1)Cc1c-2[nH]c2ccccc12 [DHII, 5,10-Dihydroindeno[1,2-b]indole]",0.49 %/μM,IC50 [2]: 3.1 µM; inhibition of lipid peroxidation [4]: potent inhibitor of lipid peroxidation; inhibition of lipid peroxidation [5]: inhibiting lipid peroxidation
5.8,"c1ccc2c(c1)Cc1[nH]c3ccccc3c1-2 [iso-DHII, 5,6-Dihydroindeno[2,1-b]indole]",0.50 %/μM,IC50 [2]: 3.4 µM; inhibition of lipid peroxidation [5]: inhibiting lipid peroxidation
